# Data published in PubChem BioAssay (NCI).
# Values joined by “and” are separate entries in the source; they are usually repeats but may differ in a detail not shown here. Equal entries are not always repeated.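 Following 48 hours of exposure in 96-well plates, responses at five concentrations were used to interpolate endpoints linearly. GI50: concentration for 50% inhibition of growth. The concentration for full growth arrest is given as TGI.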
# Experiments:
# Test in all cases: growth of human tumour cells (NCI), 48 h
# NCI-H460 lung = system: NCI-H460 lung
# SK-OV-3 ovarian = system: SK-OV-3 ovarian
# DLD-1 colon = system: DLD-1 colon
# OVCAR-8 ovarian = system: OVCAR-8 ovarian
# LXFL 529 NSCLC = system: LXFL 529 NSCLC
# NCI-H226 lung = system: NCI-H226 lung
# HT29 colon = system: HT29 colon
# SF-539 CNS = system: SF-539 CNS
# HS 578T breast = system: HS 578T breast
# MDA-MB-435 = system: MDA-MB-435
Structure (SMILES),GI50 (NCI-H460 lung),TGI (NCI-H460 lung),TGI (SK-OV-3 ovarian),GI50 (DLD-1 colon),TGI (DLD-1 colon),GI50 (OVCAR-8 ovarian),TGI (OVCAR-8 ovarian),GI50 (LXFL 529 NSCLC),TGI (LXFL 529 NSCLC),GI50 (NCI-H226 lung),TGI (NCI-H226 lung),GI50 (HT29 colon),TGI (HT29 colon),GI50 (SF-539 CNS),TGI (SF-539 CNS),GI50 (SK-OV-3 ovarian),GI50 (HS 578T breast),TGI (HS 578T breast),TGI (MDA-MB-435)
C=Cc1cncc(C#N)c1CCc1c(C#N)cncc1C=C,> 100 µM,> 100 µM,> 10 µM,> 100 µM,> 100 µM,> 100 µM,> 100 µM,> 100 µM,> 100 µM,> 100 µM,> 100 µM,> 100 µM,> 100 µM,> 100 µM,> 100 µM,,,,
CC[C@@]1(O)C(=O)OCc2c1cc1n(c2=O)Cc2cc3cc4c(cc3nc2-1)OCO4,,0.0876 µM and 0.0232 µM,,0.112 µM,> 100 µM,,0.369 µM,,0.375 µM,,0.00616 µM and < 0.0387 µM,,,,0.0013 µM,< 0.0324 µM,> 100 µM,> 100 µM,
C[C@H](OCc1ccccc1)C(=O)N1CCS(=O)(=O)N2CCC[C@@H]2C1=O,,> 100 µM,> 100 µM,,> 100 µM,,> 100 µM,,> 100 µM,,> 100 µM,,> 100 µM,,> 100 µM,,,,
COc1ccc(/C=C/c2cc(OC)c(OC)c(OC)c2)cc1,,> 80.6 µM,> 94.6 µM,,> 100 µM,,> 100 µM,,> 100 µM,,> 87.7 µM,,> 38 µM,,13.6 µM,,,,
O=c1cnn(C2OC(CO)C(O)C2O)c(=S)[nH]1 (centres undefined),,> 41.7 µM,> 100 µM,,> 100 µM,,> 100 µM,,> 100 µM,,> 100 µM,,> 100 µM,,> 100 µM,,,> 100 µM,> 100 µM
CCOC(=O)/C(C1=NCCN1)=C(\O)c1ccccc1,,> 100 µM,,,> 100 µM,,> 100 µM,,> 100 µM,,> 100 µM,,> 100 µM,,> 100 µM,,,,
CC(C)(C)C(=O)OCC1C(=O)OCC1C(=O)N1Cc2cc3ccccc3nc2C1 (centres undefined),,5.52 µM,29.8 µM,,3.15 µM,,14.8 µM,,2.97 µM,,14 µM,,14.2 µM,,12 µM,,,64.3 µM,15.7 µM
OC1(C23CC4CC(CC(C4)C2)C3)CSCC1(O)C12CC3CC(CC(C3)C1)C2 (centres undefined),,,> 100 µM,,> 100 µM,,> 100 µM,,> 100 µM,,> 100 µM,,> 100 µM,,> 100 µM,,,,
CCCCCCCCCCCCCCCC(=O)OCC1OC(n2cc(F)c(=O)[nH]c2=O)C(N)C(O)C1O (centres undefined),,,45.7 µM,,37.1 µM,,37.1 µM,,34.3 µM,,35.9 µM,,42.1 µM,,34.8 µM,,,,
Cc1ccccc1C1OC(=O)c2ccc3ccccc3c21 (centres undefined),,12.6 µM,8.37 µM,,16.8 µM,,12.8 µM,,15.1 µM,,12.2 µM,,> 31.6 µM,,13.4 µM,,,,
CCCCCCC[CH2][Sn]([CH2]CCCCCCC)([O]c1cccc2cccnc12)[O]c1cccc2cccnc12,3.12 µM,10.7 µM,,1.31 µM,2.83 µM,2.39 µM,10.4 µM,0.822 µM,2.3 µM,2.24 µM,5.53 µM,2.04 µM,3.94 µM,2.05 µM,4.68 µM,,,,
COc1ccc2c(c1)C(=O)c1ccc(OC)cc1C2=S,,,> 100 µM,,> 100 µM,,> 100 µM,,,,> 100 µM,,> 100 µM,,> 100 µM,,,,
C[C@@]12CCC(=O)c3coc(c31)C(=O)c1cc3c(cc12)C(=O)C=CC3=O,> 1 µM,> 70.9 µM,> 100 µM,> 1 µM,> 1 µM and 30.5 µM,> 1 µM,> 1 µM and 30.2 µM,> 1 µM,> 1 µM and 31.3 µM,> 1 µM,> 1 µM and 86 µM,> 1 µM,> 1 µM and 39.7 µM,< 1 µM,> 1 µM and 31.7 µM,> 1 µM,,,
COc1cc2ccnc3c2c(c1OC)-c1coc(SC)c1-3,,> 100 µM,> 100 µM,,> 100 µM,,> 100 µM,,> 100 µM,,,,> 100 µM,,> 100 µM,,,,
CC(=O)[CH-]C(=O)c1ccccc1.CC(=O)[CH-]C(=O)c1ccccc1.CC[O-].CC[O-].[Hf+4],> 100 µM,> 100 µM,> 100 µM,> 100 µM,> 100 µM,> 100 µM,> 100 µM,> 100 µM,> 100 µM,> 100 µM,> 100 µM,> 100 µM,> 100 µM,> 100 µM,> 100 µM,> 100 µM,,,
Cc1nc(Nc2ccccc2)sc1C(=O)CC(=O)C(=O)Nc1c(C(C)C)cccc1C(C)C,,> 100 µM,> 100 µM,,> 100 µM,,> 100 µM,,> 100 µM,,> 100 µM,,> 100 µM,,> 100 µM,,,,

Structure (SMILES),GI50 (NCI-H460 lung),TGI (NCI-H460 lung),TGI (SK-OV-3 ovarian),GI50 (DLD-1 colon),TGI (DLD-1 colon),GI50 (OVCAR-8 ovarian),TGI (OVCAR-8 ovarian),GI50 (LXFL 529 NSCLC),TGI (LXFL 529 NSCLC),GI50 (NCI-H226 lung),TGI (NCI-H226 lung),GI50 (HT29 colon),TGI (HT29 colon),GI50 (SF-539 CNS),TGI (SF-539 CNS),GI50 (SK-OV-3 ovarian),GI50 (HS 578T breast),TGI (HS 578T breast),TGI (MDA-MB-435)
NNC(=O)C1CCC(=O)N1S(=O)(=O)c1ccccc1 (centres undefined),,> 100 µM,> 100 µM,,> 100 µM,,> 100 µM,,> 100 µM,,> 100 µM,,> 100 µM,,> 100 µM,,,,
CN(C(=O)C12C3C4C1C1C2C3C41C(N)=O)C(C)(C)C (centres undefined),,> 100 µM,> 100 µM,,,,> 100 µM,,> 100 µM,,> 100 µM,,> 100 µM,,> 100 µM,,,,
N/N=C(/C(=O)Nc1cccc(Cl)c1)C(C(=O)c1ccc(O)cc1O)C1OC(=O)c2ccccc21 (centres undefined),,> 100 µM,> 100 µM,,,,> 100 µM,,> 100 µM,,> 100 µM,,> 100 µM,,> 100 µM,,,,
O=[N+]([O-])c1ccc(-n2nnc(C3=NCCN3)c2-c2ccccc2)cc1,,> 100 µM,> 100 µM,,> 100 µM,,> 100 µM,,> 100 µM,,> 100 µM,,> 100 µM,,> 100 µM,,,,
C=C/C=C/NC(=O)OCc1ccccc1,,> 100 µM,> 100 µM,,> 100 µM,,> 100 µM,,> 100 µM,,,,> 100 µM,,,,,,
CCOC(=O)CC[C@H](NC(=O)c1nc[nH]c1[N+](=O)[O-])C(=O)OCC,,> 100 µM,> 100 µM,,> 100 µM,,> 100 µM,,> 100 µM,,> 100 µM,,,,> 100 µM,,,,
O=C(O)CC[C@H](NC(=O)c1ccc(-n2nc3ccc(O)cc3nc2=O)cc1)C(=O)O,,> 100 µM,,,> 100 µM,,> 100 µM,,> 100 µM,,,,> 100 µM,,> 100 µM,,,,
CC(CN(C)C)/C(=N\Nc1ccccc1)c1ccccc1 (centres undefined),,15.5 µM,84.1 µM,,> 100 µM,,> 100 µM,,,,,,17.9 µM,,0.774 µM,,,,
O=C1/C(=C/c2ccccc2)CN(C(=O)CCN2CCOCC2)C/C1=C\c1ccccc1,,5.47 µM,24.2 µM,,4.28 µM,,10.3 µM,,6.35 µM,,15 µM,,3.8 µM,,4.2 µM,,,13.1 µM,3.58 µM
O=C1C(c2ccccc2)=C(O)c2cccc3cccc1c23,,> 100 µM,> 100 µM,,,,> 100 µM,,> 100 µM,,> 100 µM,,> 100 µM,,> 100 µM,,,,
OC(CCNC12CC3CC(CC(C3)C1)C2)c1ccccc1 (centres undefined),,> 100 µM,> 100 µM,,> 100 µM,,> 100 µM,,> 100 µM,,> 100 µM,,> 100 µM,,> 100 µM,,,,
CCOc1cc2c(C(=O)CC)c(O)ccc2o1,,> 100 µM,> 93.6 µM,,> 43.2 µM,,> 100 µM,,> 100 µM,,> 100 µM,,> 100 µM,,> 100 µM,,,,
O=C(c1ccc(Cl)cc1Cl)C1[C@H]2C(=O)N(c3ccc(Cc4ccc(N5C(=O)[C@@H]6ON(c7ccccc7)C(C(=O)c7ccc(Cl)cc7Cl)[C@@H]6C5=O)cc4)cc3)C(=O)[C@H]2ON1c1ccccc1 (some centres undefined),,> 50 µM,> 50 µM,,> 50 µM,,> 50 µM,,> 50 µM,,> 50 µM,,> 50 µM,,> 50 µM,,,,
COc1cc2c[n+](C)c3c4cc(OC)c(OC(C)C)cc4ccc3c2cc1OC,,> 100 µM,> 100 µM,,> 100 µM,,> 100 µM,,76.1 µM,,> 100 µM,,> 100 µM,,> 100 µM,,,,
C=C1CC2OC(=O)C(=C)C2C(O)C2C(=C)CCC12 (centres undefined),,27.8 µM,24.9 µM,,30.9 µM,,18 µM,,16.7 µM,,35.5 µM,,15.1 µM,,11.5 µM,,,,
